EPA's ToxRefDB 2

What was measured:
[1] = test system: mouse; settings: Subchronic oral toxicity in rodents, b6c3f1, Gavage/Intubation, dose end: 13 week, group: systemic
[2] = test system: rat; settings: Subchronic oral toxicity in rodents, fischer, Gavage/Intubation, dose end: 13 week, group: systemic
[3] = test system: dog; settings: Chronic toxicity, beagle, Oral, Feed, dose end: 1 year, group: systemic
[4] = test system: rat; settings: Prenatal developmental toxicity study, sprague dawley, Oral, Gavage/Intubation, dose end: 15 GD
[5] = test system: rabbit; settings: Prenatal developmental toxicity study, new zealand white, Oral, Gavage/Intubation, dose end: 19 GD
[6] = test system: rat; settings: Subchronic oral toxicity in rodents, sprague dawley, Feed, dose end: 3 month, group: systemic
[7] = test system: rat; settings: Combined chronic toxicity/carcinogenicity; sprague dawley; Oral; Feed; dose end: 2 year; group: systemic; systemic / hematology / lymphocyte / lymphocyte + systemic / hematology / neutrophils / neutrophils + systemic / in life observation / body …
[8] = test system: dog; settings: Chronic toxicity, beagle, Oral, Feed, dose end: 53 week, group: systemic
[9] = test system: mouse; settings: Combined chronic toxicity/carcinogenicity, cd1, Oral, Feed, dose end: 24 month, group: systemic
[10] = test system: mouse; settings: Subchronic oral toxicity in rodents, cd1, Feed, dose end: 3 month, group: systemic
[11] = test system: dog; settings: Subchronic oral toxicity in nonrodent, beagle, Feed, dose end: 13 week, group: systemic
[12] = test system: rat; settings: Multigenerational reproductive toxicity study, sprague dawley, Oral, Feed, dose end: 2 generation
[13] = test system: mouse; settings: Carcinogenicity; cd1; Oral; Feed; dose end: 18 month; group: systemic; systemic / pathology microscopic / adrenal gland / eosinophilic focus + systemic / pathology microscopic / liver / hypertrophy + systemic / …
[14] = test system: rat; settings: Combined chronic toxicity/carcinogenicity, sprague dawley, Oral, Feed, dose end: 2 year, group: systemic
[15] = test system: rat; settings: Subchronic oral toxicity in rodents, sprague dawley, Gavage/Intubation, dose end: 13 week, group: systemic
[16] = test system: rat; settings: Prenatal developmental toxicity study, sprague dawley, Oral, Gavage/Intubation, dose end: 15 GD, group: maternal
[17] = test system: rat; settings: Combined chronic toxicity/carcinogenicity; sprague dawley; Oral; Feed; dose end: 104 week; group: systemic; systemic / clinical chemistry / alkaline phosphatase (alp/alk) / alkaline phosphatase (alp/alk) + systemic / clinical chemistry / aspartate …
[18] = test system: rabbit; settings: Prenatal developmental toxicity study, new zealand white, Oral, Gavage/Intubation, dose end: 18 GD
[19] = test system: rat; settings: Subchronic oral toxicity in rodents, Charles River CD, Feed, dose end: 90 day, group: systemic
[20] = test system: rat; settings: Combined chronic toxicity/carcinogenicity; other; Oral; Feed; dose end: 2 year; group: systemic; systemic / clinical chemistry / peroxisomal beta-oxidation analysis / peroxisomal beta-oxidation analysis + systemic / organ weight / liver…
[21] = test system: rat; settings: Multigenerational reproductive toxicity study, sprague dawley, Oral, Gavage/Intubation, dose end: 2 generation
[22] = systemic / in life observation / clinical signs / hyperactivity + systemic / in life observation / mortality / mortality + systemic / …
[23] = systemic / clinical chemistry / albumin / albumin + systemic / clinical chemistry / protein / protein + systemic / hematology / mean …
[24] = systemic / in life observation / clinical signs / lacrimation + systemic / hematology / mean corpuscular (cell) volume (mcv) / mean …
[25] = systemic / organ weight / liver / relative to body weight
[26] = systemic / pathology microscopic / liver / hypertrophy
[27] = group: developmental, developmental / developmental malformation / bone / cervical + developmental / developmental malformation / bone / short supernumerary
[28] = group: maternal, systemic / in life observation / clinical signs / fur (altered appearance) + systemic / in life observation / clinical signs / salivation
[29] = group: maternal, systemic / in life observation / clinical signs / fur (altered appearance) + systemic / in life observation / clinical signs / salivation + …
[30] = group: developmental, developmental / offspring survival late / viability index / viability index
[31] = group: maternal, reproductive / reproductive performance / resorptions / resorptions + systemic / in life observation / body weight / body weight + systemic…
[32] = systemic / clinical chemistry / hepatic mixed function oxidase (mfo) assay / hepatic mixed function oxidase (mfo) assay
[33] = systemic / pathology microscopic / liver / hypertrophy + systemic / clinical chemistry / alanine aminotransferase (alt/sgpt) / alanine …
[34] = systemic / clinical chemistry / hepatic mixed function oxidase (mfo) assay / hepatic mixed function oxidase (mfo) assay + systemic / …
[35] = systemic / pathology microscopic / adrenal gland / hypertrophy + systemic / pathology microscopic / liver / hypertrophy + systemic / …
[36] = systemic / pathology microscopic / liver / hypertrophy + systemic / clinical chemistry / alkaline phosphatase (alp/alk) / alkaline …
[37] = group: offspring, systemic / in life observation / body weight / offspring (pup) weight gain
[38] = group: offspring, systemic / in life observation / body weight / offspring (pup) weight gain + developmental / offspring survival late / viability index / …
[39] = group: parental, systemic / organ weight / liver / nos + systemic / organ weight / liver / relative to body weight + systemic / in life observation / food …
[40] = group: parental, systemic / organ weight / liver / nos + systemic / organ weight / liver / relative to body weight + systemic / pathology microscopic / liver…
[41] = group: reproductive, reproductive / offspring survival early / birth index / live birth index
[42] = systemic / organ weight / testes / nos + systemic / pathology microscopic / testes / atrophy
[43] = systemic / organ weight / testes / nos + systemic / pathology microscopic / testes / atrophy + systemic / in life observation / body weight…
[44] = systemic / organ weight / liver / absolute + systemic / organ weight / liver / relative to body weight + systemic / in life observation / …
[45] = systemic / in life observation / body weight / body weight + systemic / in life observation / clinical signs / alopecia + systemic / in life…
[46] = group: developmental, developmental / developmental malformation / bone / full supernumerary
[47] = group: maternal, systemic / in life observation / body weight / body weight gain
[48] = systemic / organ weight / liver / absolute + systemic / organ weight / liver / relative to body weight + systemic / pathology microscopic / …
[49] = group: offspring, developmental / offspring survival late / lactation index / lactation index + developmental / offspring survival late / [other] / [other] + …
[50] = group: parental, systemic / in life observation / body weight / body weight + systemic / in life observation / body weight / body weight gain + systemic / in…
[51] = group: parental, systemic / organ weight / kidney / relative to body weight + systemic / organ weight / liver / absolute + systemic / organ weight / liver / …

Compound: C[N+](C)(C)Cc1ccccc1.[Cl-] [Benzyltrimethylammonium chloride]
- LEL ([1]; systemic / clinical chemistry / protein / protein): 25 mg/kg/day
- NEL ([1]; systemic / clinical chemistry / protein / protein + systemic / in life observation / mortality / mortality + systemic / organ weight / heart…): 12.5 mg/kg/day
- LOAEL [1, 22]: > 100 mg/kg/day
- NOAEL [1, 22]: ≥ 100 mg/kg/day
- LOAEL [2, 23]: > 100 mg/kg/day
- NOAEL [2, 23]: ≥ 100 mg/kg/day
- LEL [2, 24]: 12.5 mg/kg/day
- NEL [2, 24]: < 12.5 mg/kg/day

Compound: CCCCC(C#N)(Cn1cncn1)c1ccc(Cl)cc1 (stereo not drawn) [Myclobutanil]
- LEL [3, 25]: 0.4 mg/kg/day
- NEL [3, 25]: < 0.4 mg/kg/day
- LOAEL [3, 26]: 14.3 mg/kg/day
- NOAEL ([3]; systemic / pathology microscopic / liver / hypertrophy + systemic / organ weight / liver / relative to body weight + systemic / organ weight…): 3.09 mg/kg/day
- LEL [4, 27]: 313 mg/kg/day
- LOAEL [4, 27]: 313 mg/kg/day
- NEL [4, 27]: 93.8 mg/kg/day
- NOAEL [4, 27]: 93.8 mg/kg/day
- LEL [4, 28]: 313 mg/kg/day
- LOAEL [4, 28]: 313 mg/kg/day
- NEL [4, 29]: 93.8 mg/kg/day
- NOAEL [4, 29]: 93.8 mg/kg/day
- LEL [5, 30]: 200 mg/kg/day
- LOAEL [5, 30]: 200 mg/kg/day
- NEL [5, 30]: 60 mg/kg/day
- NOAEL [5, 30]: 60 mg/kg/day
- LEL [5, 31]: 200 mg/kg/day
- LOAEL [5, 31]: 200 mg/kg/day
- NEL [5, 31]: 60 mg/kg/day
- NOAEL [5, 31]: 60 mg/kg/day
- LEL [6, 32]: 15 mg/kg/day
- NEL [6, 32]: < 15 mg/kg/day
- LOAEL ([6]; systemic / organ weight / kidney / nos + systemic / organ weight / liver / nos): 150 mg/kg/day
- NOAEL ([6]; systemic / organ weight / kidney / nos + systemic / organ weight / liver / nos + systemic / clinical chemistry / albumin-globulin ratio / …): 50 mg/kg/day
- LEL [7]: 125 mg/kg/day
- LOAEL [7]: > 125 mg/kg/day
- NEL [7]: < 125 mg/kg/day
- NOAEL [7]: ≥ 125 mg/kg/day
- LOAEL [8, 26]: 14.3 mg/kg/day
- NEL [8, 33]: 3.09 mg/kg/day
- NOAEL [8, 33]: 3.09 mg/kg/day
- LEL ([8]; systemic / pathology microscopic / liver / hypertrophy + systemic / hematology / mean corpuscular hemoglobin (mch) / mean corpuscular …): 14.3 mg/kg/day
- LEL [9, 32]: 16.5 mg/kg/day
- LOAEL [9, 32]: 16.5 mg/kg/day
- NEL [9, 34]: 3.2 mg/kg/day
- NOAEL [9, 34]: 3.2 mg/kg/day
- LOAEL [10, 35]: 150 mg/kg/day
- NEL [10, 35]: 45 mg/kg/day
- NOAEL [10, 35]: 45 mg/kg/day
- LEL ([10]; systemic / pathology microscopic / adrenal gland / hypertrophy + systemic / pathology microscopic / liver / necrosis + systemic / pathology …): 150 mg/kg/day
- LOAEL [11, 26]: 5 mg/kg/day
- NEL [11, 36]: 0.25 mg/kg/day
- NOAEL [11, 36]: 0.25 mg/kg/day
- LEL ([11]; systemic / pathology microscopic / liver / hypertrophy + systemic / pathology microscopic / kidney / inflammation): 5 mg/kg/day
- NEL [12, 37]: 10 mg/kg/day
- NOAEL [12, 37]: 10 mg/kg/day
- LEL [12, 38]: 50 mg/kg/day
- LOAEL [12, 38]: 50 mg/kg/day
- NEL [12, 39]: 2.5 mg/kg/day
- NOAEL [12, 39]: 2.5 mg/kg/day
- LEL [12, 40]: 10 mg/kg/day
- LOAEL [12, 40]: 10 mg/kg/day
- LEL [12, 41]: 10 mg/kg/day
- LOAEL [12, 41]: 50 mg/kg/day
- NEL [12, 41]: 2.5 mg/kg/day
- NOAEL [12, 41]: 10 mg/kg/day
- LEL [13]: 394 mg/kg/day
- LOAEL [13]: 394 mg/kg/day
- NEL [13]: < 394 mg/kg/day
- NOAEL [13]: < 394 mg/kg/day
- LEL [14, 42]: 9.84 mg/kg/day
- LOAEL [14, 42]: 9.84 mg/kg/day
- NEL [14, 43]: 2.49 mg/kg/day
- NOAEL [14, 43]: 2.49 mg/kg/day

Compound: CCCCCCCCOC(C)=O [Octyl acetate]
- NEL ([15]; systemic / in life observation / body weight / body weight + systemic / in life observation / food consumption / food consumption + systemic…): 100 mg/kg/day
- LOAEL [15, 44]: > 1000 mg/kg/day
- NOAEL [15, 44]: ≥ 1000 mg/kg/day
- LEL [15, 25]: 500 mg/kg/day
- LOAEL [16, 45]: > 1000 mg/kg/day
- NEL [16, 45]: 100 mg/kg/day
- NOAEL [16, 45]: ≥ 1000 mg/kg/day
- LEL ([16]; systemic / in life observation / body weight / body weight + systemic / in life observation / food consumption / food consumption): 500 mg/kg/day

Compound: O=C([O-])C(F)(F)C(F)(F)C(F)(F)C(F)(F)C(F)(F)C(F)(F)C(F)(F)F.[NH4+] [PFOA, ammonium salt]
- LEL [17]: 1.3 mg/kg/day
- LOAEL [17]: > 14.2 mg/kg/day
- NEL [17]: < 1.3 mg/kg/day
- NOAEL [17]: ≥ 14.2 mg/kg/day
- LEL [18, 46]: 50 mg/kg/day
- LOAEL [18, 46]: > 50 mg/kg/day
- NEL [18, 46]: 5 mg/kg/day
- NOAEL [18, 46]: ≥ 50 mg/kg/day
- LEL [18, 47]: 50 mg/kg/day
- LOAEL [18, 47]: 50 mg/kg/day
- NEL [18, 47]: 5 mg/kg/day
- NOAEL [18, 47]: 5 mg/kg/day
- NEL ([19]; systemic / clinical chemistry / alkaline phosphatase (alp/alk) / alkaline phosphatase (alp/alk) + systemic / clinical chemistry / urea …): 0.5 mg/kg/day
- LEL ([19]; systemic / organ weight / kidney / absolute): 1.5 mg/kg/day
- LOAEL [19, 48]: > 50 mg/kg/day
- NOAEL [19, 48]: ≥ 50 mg/kg/day
- LEL [20]: 15 mg/kg/day
- LOAEL [20]: > 15 mg/kg/day
- NEL [20]: < 15 mg/kg/day
- NOAEL [20]: ≥ 15 mg/kg/day
- LEL [21, 49]: 30 mg/kg/day
- LOAEL [21, 49]: > 30 mg/kg/day
- NEL [21, 49]: 10 mg/kg/day
- NOAEL [21, 49]: ≥ 30 mg/kg/day
- LOAEL [21, 50]: > 30 mg/kg/day
- NOAEL [21, 50]: ≥ 30 mg/kg/day
- LEL [21, 51]: 1 mg/kg/day
- NEL [21, 51]: < 1 mg/kg/day
